These results are taken from US20100035865A1, “Sulfonamides and Pharmaceutical Compositions Thereof” (PFIZER INC, priority 2007, published 2010).

What is called EC50 is the concentration needed to bring the measured effect to its halfway point.

“And” between values parts separate entries of the source, which are not always exact repeats. Identical values can stand only once. Like-named read-outs stand apart in the source and are kept apart here.

The subject of the experiment is AMPA receptors. In words: AMPA ES Cell FLIPR Screen, G7330B (EC50 and % effect). It counts as cell-based, murine. The settings on record: for EC50: ES cell-derived neurons, 32 uM AMPA challenge. The method, then:
The murine ES cell line used was E14-Sx1-16C, which has a targeted mutation in the Sox1 gene, a neuroectodermal marker, that offers G418 resistance when the Sox1 gene is expressed (Stem Cell Sciences). ES cells were maintained undifferentiated as previously described (Roach). […] ES cells were plated on gelatin-coated dishes (BD Biosciences), the media was changed daily and the cells were dissociated with 0.05% Trypsin EDTA (Invitrogen) every other day.
Embryoid Body Formation: Prior to embryoid body (EB) formation the ES cells were weaned from FBS onto Knockout Serum Replacement (KSR) (Invitrogen). To form EBs, ES cells were dissociated into a single cell suspension then 3×10^6 cells were plated in bacteriology dishes (Nunc 4014) and grown as a suspension culture in NeuroEB-I medium that consisted of Knockout™ D-MEM (Invitrogen), supplemented with 10% KSR (Invitrogen), 0.2 mM L-Glutamine (Invitrogen), 0.1 mM MEM non-essential amino acids (Invitrogen), 30 μg/ml Gentamicin (Invitrogen), 1000 u/ml ESGRO (Chemicon), 0.1 mM 2-Mercaptoethanl (Sigma) and 150 ng/ml Transferrin (Invitrogen). The plates were put on a Stovall Belly Button shaker in an atmospheric oxygen incubator. The media was changed on day 2 of EB formation with NeuroEB-I and on day 4 with NeuroEB-II (NeuroEB-I plus 1 μg/ml mNoggin [R&D Systems]).
Neuronal Precursor Selection and Expansion: On day 5 of EB formation, EBs were dissociated with 0.05% Trypsin EDTA, and 4×10^6 cells/100 mm dish were plated on Laminin coated tissue culture dishes in NeuroII-G418 medium that consisted of a base medium of a 1:1 mixture of D-MEM/F12 supplemented with N2 supplements and NeuroBasal Medium supplemented with B27 supplement and 0.1 mM L-Glutamine (all from Invitrogen). The base medium was then supplemented with 10 ng/ml bFGF (Invitrogen), 1 μg/ml mNoggin, 500 ng/ml SHH-N, 100 ng/ml FGF-8b (R&D Systems), 1 μg/ml Laminin and 200 μg/ml G418 (Invitrogen) for selection of neuronal precursors expressing Sox-1. The plates were put in an incubator that contained 2% Oxygen and were maintained in these conditions. During the 6-day selection period, the NeuroII media was changed daily. On day 6, the surviving neuronal precursor foci were dissociated with 0.05% Trypsin EDTA and the cells were plated at a density of 1.5×10^6 cells/100 mm Laminin coated dish in NeuroII-G418 medium. The cells were dissociated every other day for expansion, and prepared for Cryopreservation at passage 3 or 4. The cryopreservation medium contained 50% KSR, 10% Dimethyl Sulfoxide (DMSO) (Sigma) and 40% NeuroI-G418I medium. Neuronas precursors were crypreserved at a concentration of 4×10^6cells/ml and 1 ml/cryovial in a controlled rate freezer overnight then transferred to an ultra-low freezer or liquid nitrogen for long-term storage,
Neuronal Differentiation: Cryopreserved ES cell-derived neuronal precursors were thawed by the rapid thaw method in a 37-degree water-bath. The cells were transferred from the cryovial to a 100 mm Laminin coated tissue culture dish that already contained NeuroII-G418 that had been equilibrated in a 2% Oxygen incubator. The media was changed with fresh NeuroII-G418 the next day. The cells were dissociated every other day as described above for expansion to generate enough cells to plate for the screen. For the screen, the cells were plated into 384-well poly-d-lysine coated tissue culture dishes (BD Biosciences) by the automated SelecT at a cell density of 6K cells/well in differentiation medium NeuroIII that contained a 4:1 ratio of the NeuroBasalMedium/B27:D-MEM/F12/N2 supplemented with 1 μM cAMP (Sigma), 200 μM Ascorbic Acid (Sigma), 1 μg/ml Laminin (Invitrogen) and 10 ng/ml BDNF (R&D Systems). The plates were put in an incubator with 2% Oxygen and allowed to complete the differentiation process for 7 days. The cells could then be used over a 5-day period for the high throughput screen.
Procedure for AMPA ES Cell FLIPR Screen […]

Setting [1] is: Dose 31.6 uM, individual determinations.
[2] abbreviates: individual determinations, read-out: G7330B (U): EC50.
The mark [3] stands for this setting: mean of individual determinations (range and n in cells below), read-out: G7330B mean EC50.
Where [4] appears, read: Dose 32.0 uM, individual determinations.

Turning to `CC(C)S(=O)(=O)N[C@@H]1COCC[C@H]1c1ccc(-c2ccccc2C#N)cc1` [Example 34, Propane-2-sulfonic acid[trans-4-(2′-cyano-biphenyl-4-yl)-tetrahydro-pyran-3-yl]-amide], under setting [1], the “G7330B (U): % Effect” value is on record as 137%. For the same molecule, the EC50 reads like this: under setting [2], 1.25 µM; under setting [3], 1.25 µM.

With `CC(C)S(=O)(=O)NC1CCN(S(C)(=O)=O)CC1c1ccc(-c2ccccc2)cc1` (stereo not drawn) [Example 26, Propane-2-sulfonic acid(trans-3-biphenyl-4-yl-1-methanesulfonyl-piperidin-4-yl)-amide], under setting [4], the “G7330B (U): % Effect” value is 13.3% and 10.8% and 9.95%. Also, the EC50 is > 32 µM under setting [2] and > 32 µM under setting [3].

`CC(C)S(=O)(=O)NC1COCCC1c1ccc(-c2ccc(F)cc2)cc1` (stereo not drawn) [Example 32, Propane-2-sulfonic acid[trans-4-(4′-fluoro-biphenyl-4-yl)-tetrahydro-pyran-3-yl]-amide]: under setting [1], the “G7330B (U): % Effect” value was 120% and 127% and 115%. Further, the 50% effective concentration (EC50) is, setting by setting: under setting [2], 2.57 µM; under setting [3], 2.57 µM.

With `CC(C)S(=O)(=O)NC1CCNCC1c1ccc(-c2cc(Cl)ccc2Cl)cc1` (stereo not drawn) [Example 23, Propane-2-sulfonic acid[trans-3-(2′,5′-dichloro-biphenyl-4-yl)-piperidin-4-yl)]-amide], under setting [4], the “G7330B (U): % Effect” value was 10.1% and 9.71% and 6.91%. For the same molecule, the half-maximal effective concentration (EC50) is, setting by setting: under setting [2], > 32 µM; under setting [3], > 32 µM.

With `CC(=O)N1CC[C@@H](NS(=O)(=O)C(C)C)[C@H](c2ccc(NC(=O)c3cc(F)cc(F)c3)cc2)C1` (relative stereo) [Example 40, N-{4-[trans-1-Acetyl-4-(propane-2-sulfonylamino)-piperidin-3-yl]-phenyl}-3,5-difluoro-benzamide], under setting [1], the “G7330B (U): % Effect” value is 152% and 179% and 176%. Further, the EC50 reads like this: under setting [2], 11.7 µM; under setting [3], 11.7 µM.

For `CC(C)S(=O)(=O)N[C@@H]1CN(C)CC[C@H]1c1ccc(-c2ccccc2)cc1` [Example 4, Propane-2-sulfonic acid ((3S,4S)-4-biphenyl-4-yl-1-methyl-piperidin-3-yl)-amide], the “G7330B (U): % Effect” value under setting [4] was 4.29% and 2.21% and 2.27% and 2.45% and 2.50% and 6.32% and 2.96% and 5.62% and 0.525%. Further, the EC50 by setting is: under setting [2], > 32 µM; under setting [3], > 32 µM.

Take `CC(C)S(=O)(=O)NC1CCNCC1c1ccc(-c2ccccc2)cc1` (stereo not drawn) [Example 18, Propane-2-sulfonic acid(trans-3-biphenyl-4-yl-piperidin-4-yl)-amide]: the “G7330B (U): % Effect” value under setting [4] was 5.77% and 3.59% and 3.97%. For the same molecule, the EC50 was > 32 µM under setting [2] and > 32 µM under setting [3].

On to `CC(C)S(=O)(=O)NC1CCNCC1c1ccc(-c2ccc(C#N)cc2)cc1` (stereo not drawn) [Example 19, Propane-2-sulfonic acid[trans-3-(4′-cyano-biphenyl-4-yl)-piperidin-4-yl]-amide], for which, under setting [4], the “G7330B (U): % Effect” value was 6.07% and 7.12% and 6.19%. For the same molecule, the EC50 by setting is: under setting [2], > 32 µM; under setting [3], > 32 µM.

On to `CC(C)S(=O)(=O)NC1COCCC1(O)c1ccc(-c2ccccc2)cc1` [Example 42, Propane-2-sulfonic acid((3R,4S)-rel-4-biphenyl-4-yl-4-hydroxy-tetrahydro-pyran-3-yl)-amide], for which the “G7330B (U): % Effect” value under setting [1] was 145% and 142% and 152%. The EC50 under setting [2] turned out to be 11.9 µM and the EC50 under setting [3] is 11.9 µM.

Consider `CNC(=O)c1ccc(-c2ccc([C@@H]3CCOC[C@H]3NS(=O)(=O)C(C)C)cc2)cc1` (relative stereo) [Example 38, 4′-[trans-3-(Propane-2-sulfonylamino)-tetrahydro-pyran-4-yl]-biphenyl-4-carboxylic acid methylamide], for which the EC50 is > 10 µM under setting [2] and > 10 µM under setting [3].

In the case of `CC(C)S(=O)(=O)N[C@@H]1CCNC[C@H]1c1ccc(-c2ccccc2C(N)=O)cc1` (relative stereo) [Example 21, 4′-[trans-4-(Propane-2-sulfonylamino)-piperidin-3-yl]-biphenyl-2-carboxylic acid amide], under setting [4], the “G7330B (U): % Effect” value is 0.573% and 0.266% and 0.149%. Besides, the EC50 reads like this: under setting [2], > 32 µM; under setting [3], > 32 µM.

For the molecule `CC(C)S(=O)(=O)N[C@@H]1COCC[C@H]1c1ccc(-c2ccccc2Cl)cc1` [Example 36, Propane-2-sulfonic acid[trans-4-(2′-chloro-biphenyl-4-yl)-tetrahydro-pyran-3-yl]-amide], the EC50 by setting is: under setting [2], 7.04 µM; under setting [3], 7.04 µM.

In the case of `CCN1CC[C@@H](c2ccc(-c3ccccc3)cc2)[C@H](NS(=O)(=O)C(C)C)C1` (relative stereo) [Example 5, propane-2-sulfonic acid (trans-4-biphenyl-4-yl-1-ethyl-piperidin-3-yl)-amide], the “G7330B (U): % Effect” value under setting [1] was 76.3% and 78.8%. For the same molecule, the EC50 by setting is: under setting [2], > 31.6 µM; under setting [3], > 31.6 µM.

As for `CCS(=O)(=O)NC1CCOCC1c1ccc(-c2ccccc2)cc1` (stereo not drawn) [Example 16, Ethanesulfonic acid(trans-3-biphenyl-4-yl-tetrahydro-pyran-4-yl)-amide], the “G7330B (U): % Effect” value under setting [4] is 153% and 141% and 140%. The EC50 reads like this: under setting [2], 10.4 µM and > 31.6 µM and > 10 µM; under setting [3], > 18.2 µM.

In the case of `CC(C)S(=O)(=O)N[C@@H]1CCN(C)C[C@H]1c1ccc(NC(=O)c2ccccc2)cc1` (relative stereo) [Example 44, N-{4-[trans-1-Methyl-4-(propane-2-sulfonylamino)-piperidin-3-yl]-phenyl}-benzamide], under setting [1], the “G7330B (U): % Effect” value is 1.85% and 1.10% and 5.81%. For the same molecule, the EC50 is, setting by setting: under setting [2], > 31.6 µM; under setting [3], > 31.6 µM.

`CC(C)S(=O)(=O)NC1CCNCC1c1ccc(-c2ccccc2C#N)cc1` (stereo not drawn) [Example 20, Propane-2-sulfonic acid[trans-3-(2′-cyano-biphenyl-4-yl)-piperidin-4-yl]-amide]: the “G7330B (U): % Effect” value under setting [4] is 39.9% and 48.6% and 44.4%. Also, the EC50 runs as follows: under setting [2], > 32 µM; under setting [3], > 32 µM.

`CC(C)S(=O)(=O)NC1CN(S(C)(=O)=O)CCC1c1ccc(-c2ccccc2)cc1` (stereo not drawn) [Example 6, propane-2-sulfonic acid (trans-4-biphenyl-4-yl-1-methanesulfonyl-piperidin-3-yl-amide]: the “G7330B (U): % Effect” value under setting [1] was 0.710% and −1.26% and 0.0628%. For the same molecule, the EC50 was > 31.6 µM under setting [2] and > 31.6 µM under setting [3].

Regarding `CC(=O)N1CCC(c2ccc(-c3ccccc3)cc2)C(NS(=O)(=O)C(C)C)C1` (stereo not drawn) [Example 43, Propane-2-sulfonic acid(trans-1-acetyl-4-biphenyl-4-yl-piperidin-3-yl)-amide], the “G7330B (U): % Effect” value under setting [1] is 85.0% and 92.2% and 102%. Also, the EC50 reads like this: under setting [2], > 31.6 µM; under setting [3], > 31.6 µM.

In the case of `CC(C)S(=O)(=O)N[C@@H]1CCN(C)C[C@H]1c1ccc(NC(=O)c2cc(F)cc(F)c2)cc1` (relative stereo) [Example 45, 3,5-Difluoro-N-{4-[trans-1-methyl-4-(propane-2-sulfonylamino)-piperidin-3-yl]-phenyl}-benzamide], under setting [1], the “G7330B (U): % Effect” value is −0.114% and 0.0432% and −0.344%. Besides, the EC50 was > 31.6 µM under setting [2] and > 31.6 µM under setting [3].

For the molecule `CC(C)S(=O)(=O)N[C@H]1CN(C)CC[C@@H]1c1ccc(-c2ccccc2)cc1` [Example 3, Propane-2-sulfonic acid ((3R,4R)-4-biphenyl-4-yl-1-methyl-piperidin-3-yl)-amide], the “G7330B (U): % Effect” value under setting [4] is 99.8% and 94.3% and 83.1% and 129% and 98.9% and 119%. Also, the EC50 under setting [3] was > 4.2 µM.
